13 compounds from patent publication US20110082130A1 (LIGAND PHARMACEUTICALS, INC., priority 2006, published 2011) can be followed below.

Each structure is given as a SMILES string.

For the first experiment, the target named is T1, chimeric human H3 receptor (Homo sapiens, UniProt Q9Y5N1).
T1 construct: made in house; host or cells: Sf9 insect cells (baculovirus); P2 membrane preparation
T1 sequence (Q9Y5N1 with tags, fused parts or gaps): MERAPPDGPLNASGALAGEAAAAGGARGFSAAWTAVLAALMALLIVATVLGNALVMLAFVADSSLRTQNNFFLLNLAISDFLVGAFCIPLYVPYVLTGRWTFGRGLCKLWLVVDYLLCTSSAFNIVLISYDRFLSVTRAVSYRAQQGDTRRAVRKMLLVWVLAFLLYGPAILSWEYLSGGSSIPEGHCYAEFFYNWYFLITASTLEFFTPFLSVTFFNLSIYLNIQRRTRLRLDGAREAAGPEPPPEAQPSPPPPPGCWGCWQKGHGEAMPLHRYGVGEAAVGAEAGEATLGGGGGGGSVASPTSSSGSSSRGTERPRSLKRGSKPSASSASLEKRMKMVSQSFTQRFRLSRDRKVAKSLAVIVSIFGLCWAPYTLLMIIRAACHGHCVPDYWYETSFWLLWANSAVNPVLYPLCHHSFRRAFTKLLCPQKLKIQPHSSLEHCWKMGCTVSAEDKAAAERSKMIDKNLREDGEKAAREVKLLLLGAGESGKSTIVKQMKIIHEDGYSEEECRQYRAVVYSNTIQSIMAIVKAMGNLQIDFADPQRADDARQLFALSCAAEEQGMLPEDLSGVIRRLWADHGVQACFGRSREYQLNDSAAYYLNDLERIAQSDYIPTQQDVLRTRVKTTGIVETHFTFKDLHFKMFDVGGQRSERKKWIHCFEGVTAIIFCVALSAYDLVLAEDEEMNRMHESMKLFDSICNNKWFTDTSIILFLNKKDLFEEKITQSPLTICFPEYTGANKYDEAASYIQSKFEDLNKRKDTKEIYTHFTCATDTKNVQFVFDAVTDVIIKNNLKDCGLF
Description: Chimeric human H3 receptor screening GTP binding assay (inhibition of histamine-stimulated GTP-gamma35S binding, Example 8). It is filed as biochemical. Particulars: 4 μM of the compound, 1 μM histamine, "†" in Ki of Table II, read-out: percent inhibition of the signal obtained with 1 μM histamine. In outline: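 Values are percent inhibition of 1 μM histamine-stimulated GTP-gamma35S […] binding, with non-specific binding (10 μM GTP-gammaS) subtracted, by compounds tested at 4 μM. Membranes (35 μg) from Sf9 cells expressing chimeric human H3 with G-protein subunits were used in Tris pH 7.4 buffer with 10 μM GDP. Incubation lasted 60 min at room temperature, followed by filtration and scintillation counting.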
(GTPγS resists hydrolysis and so accumulates on activated G proteins.)
Broadly, the inhibition is the drop in the measured response relative to a control, in per cent. For `CC(C)N1CCN(C(=O)CN2CCc3cc(-c4ccc(OC(F)(F)F)cc4)ccc3C2)CC1` [Compound 481, 2-[2-(4-isopropylpiperazin-1-yl)-2-oxoethyl]-6-[4-(trifluoromethoxy)phenyl]-1,2,3,4-tetrahydroisoquinoline], the inhibition at 4 µM was not below 90%. With `Cc1ccc(-c2ccc3c(c2)CCN(CC(=O)N2CCN(C4CCCCC4)CC2)C3)c(F)c1` [Compound 422, 2-[2-(4-cyclohexylpiperazin-1-yl)-2-oxoethyl]-6-(2-fluoro-4-methylphenyl)-1,2,3,4-tetrahydroisoquinoline], the inhibition at 4 µM was not below 90%.

For `CCc1cccc(-c2ccc3c(c2)CCN(CC(=O)N2CCN(C4CCCC4)CC2)C3)c1` [Compound 468, 2-[2-(4-cyclopentylpiperazin-1-yl)-2-oxoethyl]-6-(3-ethylphenyl)-1,2,3,4-tetrahydroisoquinoline], the inhibition at 4 µM was not below 90%.

For `CC(C)(C)c1ccc(-c2ccc3c(c2)CCN(CC(=O)N2CCN(C4CCCC4)CC2)C3)cc1` [Compound 472, 6-(4-tert-butylphenyl)-2-[2-(4-cyclopentylpiperazin-1-yl)-2-oxoethyl]-1,2,3,4-tetrahydroisoquinoline], the inhibition at 4 µM was not below 90%. For `O=C(CN1CCc2cc(-c3cccc4c3oc3ccccc34)ccc2C1)N1CCN(C2CCCC2)CC1` [Compound 379, 2-[2-(4-cyclopentylpiperazin-1-yl)-2-oxoethyl]-6-dibenzo[b,d]furan-4-yl-1,2,3,4-tetrahydroisoquinoline], the inhibition at 4 µM was not below 90%. With `COc1ccc(F)cc1-c1nc2c(s1)CN(CC(=O)N1CCN(C3CCC3)CC1)CC2` [Compound 343, 5-[2-(4-cyclobutylpiperazin-1-yl)-2-oxoethyl]-2-(5-fluoro-2-methoxyphenyl)-4,5,6,7-tetrahydro[1,3]thiazolo [5,4-c]pyridine], the inhibition at 4 µM was not below 90%. Consider `CC(C)c1ccc(-c2ccc3c(c2)CCN(CC(=O)N2CCN(C4CCCCC4)CC2)C3)cc1` [Compound 445, 2-[2-(4-cyclohexylpiperazin-1-yl)-2-oxoethyl]-6-(4-isopropylphenyl)-1,2,3,4-tetrahydroisoquinoline], for which the inhibition at 4 µM was not below 90%.

The same experiment, now with this note: Table II "Ki", symbol †, 4 μM of the compound, 1 μM histamine, read-out: percent inhibition of the signal obtained with 1 μM histamine.
In the case of `CCCOc1ccc(-c2ccc3c(c2)CCN(CC(=O)N2CCN(C4CCCCC4)CC2)C3)cc1` [Compound 546, 2-[2-(4-cyclohexylpiperazin-1-yl)-2-oxoethyl]-6-(4-propoxyphenyl)-1,2,3,4-tetrahydroisoquinoline], the inhibition at 4 µM is not below 90%. Take `COc1ccccc1-c1ccc2c(c1)CCN(CC(=O)N1CCN(C3CCCC3)CC1)C2` [Compound 552, 2-[2-(4-cyclopentylpiperazin-1-yl)-2-oxoethyl]-6-(2-methoxyphenyl)-1,2,3,4-tetrahydroisoquinoline]: the inhibition at 4 µM was not below 90%. With `CCCOc1ccc(-c2ccc3c(c2)CCN(CC(=O)N2CCN(C(C)C)CC2)C3)cc1` [Compound 547, 2-[2-(4-isopropylpiperazin-1-yl)-2-oxoethyl]-6-(4-propoxyphenyl)-1,2,3,4-tetrahydroisoquinoline], the inhibition at 4 µM is not below 90%.

As to `COc1ccccc1-c1ccc2c(c1)CCN(CC(=O)N1CCN(C3CCCCC3)CC1)C2` [Compound 553, 2-[2-(4-cyclohexylpiperazin-1-yl)-2-oxoethyl]-6-(2-methoxyphenyl)-1,2,3,4-tetrahydroisoquinoline], the inhibition at 4 µM was not below 90%. As for `O=C(CN1CCc2cc(-c3cc(F)cc(F)c3)ccc2C1)N1CCN(C2CCCC2)CC1` [Compound 597, 2-[2-(4-cyclopentylpiperazin-1-yl)-2-oxoethyl]-6-(3,5-difluorophenyl)-1,2,3,4-tetrahydroisoquinoline], the inhibition at 4 µM was not below 90%. As for `COc1ccc(-c2ccc3c(c2)CCN(CC(=O)N2CCN(C4CCC4)CC2)C3)c(C)c1` [Compound 548, 2-[2-(4-cyclobutylpiperazin-1-yl)-2-oxoethyl]-6-(4-methoxy-2-methylphenyl)-1,2,3,4-tetrahydroisoquinoline], the inhibition at 4 µM was not below 90%.
